Source: patent publication US6689381B2, “Liposomal benzoquinazoline thymidylate synthase inhibitor formulations” (OSI Pharmaceuticals, Inc., priority 2000, dated 2004)

Test system: human colon tumor xenograft model (HCT-8, thymidine kinase (TK)-/-)
Assay: HCT-8 xenograft, NX1843 dose schedule study and combinations with 5-FU, NX211 and GW1843 (Table 27)
Type: in vivo, nude mice
Protocol: Female Nu/Nu mice (18-24 g, 10-14 weeks old) were obtained from Harlan Sprague Dawley, and housed in microisolator filtration racks and maintained with filtered acidified water and sterile lab chow ad libitum. […] Animals were allowed to acclimate to their new environment for 1 week prior to tumor cell implantation. Tumors were established by injecting harvested tumor cells in a single subcutaneous site on the flank of the mice in the axillary region. The tumors were grown until approximately 200+/−50 mm^3 in size. The animals were then sorted according to body weight, grouped four animals/cage, and tattooed on the tail for permanent identification. Groups consisting of 8 tumor-bearing mice each were administered weekly doses of experimental agents by IV bolus injection through the tail vein. Tumor volumes were determined with vernier caliper measurements taken at right angles using the formula, (L×W^2/2) and body weights, were collected twice weekly. Data was plotted as % change in body weight vs. time in days, and % tumor volume increase vs. days.
T=(mean) time in days for treated group to reach cutoff size (2 grams)
C=(mean) time in days for control group to reach cutoff size (2 grams)
WC is the mean tumor weight of control group at time x
Wt is mean tumor weight of treated group at time x
% Regression=100 (Wo−Wi)/Wo; where Wo is the mean tumor weight for treated group at the initiation of treatment and Wi=the mean tumor weight for that group at time some time x after treatment.
In addition to these dose groups the free drug was dosed at 100 mg/kg on days 1-5, and repeated for a second week.

O=c1[nH]cc(F)c(=O)[nH]1 [Lot 5-FU, 5-fluorourcil, reference compound]
% TGI (100 mg/kg, QD1, 8): 72%
Cures (100 mg/kg, QD1, 8): 0
LCK (100 mg/kg, QD1, 8): 1.5
% Regression day 22 (100 mg/kg, QD1, 8, day 22): 0%
log cell kill (LCK) (iv, NX1843 25 mg/kg d1,8, 15 mg/kg QD(1,3,5)×2 or 7.5 mg/kg QD(1-5)×2, GW1843 100 mg/kg d1-5 ×2, 5FU 100 mg/kg d1,8, NX211 6 mg/kg d1,8, combinations at same doses): 1.5
